Test results taken from patent EP0372889A1, “Doxorubicin solutions” (Bristol-Myers Squibb Company, priority 1988, dated 1990).
Counter-ions that a name gives are not always drawn. Like-named read-outs stand apart in the source and are kept apart here.

Tests used:
[1] = assay type: physicochemical
Description: It is also necessary for optimum stability of the solutions, especially at elevated temperatures which may be encountered at some time during the life of the product, e.g. during shipping, to utilize an antioxidant. We have tested a number of antioxidants including α-tocopherol, tert-butylhydroquinone (TBHQ), sodium formaldehyde bisulfite, butylated hydroxy anisole (BHA), butylated hydroxy toluene (BHT), sodium bisulfite and propyl gallate. […] This finding was disclosed and claimed in our EP-A-88111434.2 and in co-pending U.S. application Serial Number 246,602 filed September 20, 1988 and incorporated by reference herein in their entirety. […] Generally, an amount of sodium acetone bisulfite is employed in the range of about 0.1 to 20 mg/ml with about 2 mg/ml being most preferred.
Despite reports of potency losses of doxorubicin HCl solutions via photolytic degradation and adsorption to container walls, we have not noted any significant loss of potency due to container adsorption or sensitivity to normal room light with our solutions. Glass vials may conveniently be used as the container.
As an example of a stable non-aqueous solution of doxorubicin, 20 mg/ml of doxorubicin hydrochloride, 0.2 mg/ml citric acid (anhydrous), 2.0 mg/ml of sodium acetone bisulfite and a solvent medium consisting of deaerated propylene glycol/water (90:10 v/v) are added to a Type 1 flint vial, the vial is purged with nitrogen and then sealed with a suitable teflon-coated stopper. […] Substantially equivalent results are obtained when 1,2-dihydroxybutane and 1,3-dihydroxypropane solvent systems are used.

[2] = Solubility of doxorubicin HCl in non-aqueous solvents; assay type: physicochemical; conditions: for solubility: organic solvent or mixture
Procedure: Doxorubicin HCl at room temperature has a solubility of less than 5 mg/ml in propylene glycol, 1,2-dihydroxybutane and 1,3-dihydroxypropane. […] Solubility of doxorubicin HCl can be increased to about 20 mg/ml in the above-mentioned solvents by addition of 5-10% (v/v) water.

[3] = cited from earlier work

Q: For `COc1cccc2c1C(=O)c1c(O)c3c(c(O)c1C2=O)C[C@@](O)(C(=O)CO)C[C@@H]3O[C@H]1C[C@H](N)[C@H](O)[C@H](C)O1` [Doxorubicin HCl, doxorubicin hydrochloride], which potency retained ([1]; 20 mg/ml, 0.2 mg/ml citric acid, 2.0 mg/ml sodium acetone bisulfite, propylene glycol/water (90:10 v/v), nitrogen purged, 2 weeks at 40°C, 20160 min) is on record?
A: 97.2%

Q: What about the potency retained ([1]; same solution, 4 weeks at 40°C, 40320 min) of the same molecule?
A: 93.4%

Q: What about the potency retained ([1]; same solution, 12 weeks at 40°C, 120960 min) of the same molecule?
A: 88.2%

Q: And the “acceptable shelf-life (≦10% potency loss)” value ([1]; same solution, 37°C)?
A: at least four

Q: And the “acceptable shelf-life (≦10% potency loss)” value ([1]; same solution, room temperature)?
A: at least 18 months

Q: And the “chemical stability of solutions” value ([2]; glycerol formal, 2-pyrrolidinone and 1-methyl-2-pyrrolidinone)?
A: chemically unstable

Q: What about the solubility ([2]; glycerol formal, pyrrolidinones, glycerol formal, 2-pyrrolidinone and 1-methyl-2-pyrrolidinone, read-out: solution concentration produced) of the same molecule?
A: ≥ 5000 µg/mL

Q: And the solubility ([2]; glycols with 5-10% water, propylene glycol, 1,2-dihydroxybutane, 1,3-dihydroxypropane with addition of 5-10% (v/v) water, read-out: Solubility)?
A: ~20000 µg/mL

Q: And the solubility ([2]; propylene glycol, butanediol, propanediol, room temperature, in propylene glycol, 1,2-dihydroxybutane and 1,3-dihydroxypropane, read-out: solubility)?
A: < 5000 µg/mL

Q: What about the solubility ([2]; propylene glycol, butanediol, propanediol, same solvents, short-term (0.5-1 hour) warming (60-80°C) with vigorous stirring, read-out: solubility) of the same molecule?
A: ~10000 µg/mL

Q: And the “physical stability of solution on cold storage” value ([2]; stored at 4°C to -20°C, seeding with crystalline doxorubicin HCl does not affect crystallization)?
A: remains in solution

Q: What about the potency loss ([2]; upon short-term (0.5-1 hour) warming (60-80°C) in propylene glycol, 1,2-dihydroxybutane, 1,3-dihydroxypropane) of the same molecule?
A: no potency loss

Q: And the solubility ([2]; various organic solvents, with heating, polyethylene glycols, ethanol, benzyl alcohol, dimethylisosorbide, ethyl lactate, Solketol, Cremophors, Pluronics, read-out: Solubilities)?
A: < 5000 µg/mL

Q: And the stable ([3]; commercial preservative-free ready-to-use aqueous solution, 4°C, manufacturer)?
A: 18 months

Q: What about the “undesirable and potentially toxic degradation products” value ([3]; commercial ready-to-use aqueous solution, at the end of 18 months at 4°C, 788400 min) of the same molecule?
A: up to 10%

Q: What about the remains stable ([3]; reconstituted solution in 0.9% NaCl solution, room temperature or 5°C, Ketcyhum, et al.) of the same molecule?
A: seven

Q: With `O=S(=O)(O)CO` [sodium formaldehyde bisulfite] as the molecule, how does the “stabilization of doxorubicin solutions by antioxidant” value (“stabilization” for short) [1] read?
A: resulted in the desired stability

Q: With `CC(C)(C)c1cc(O)ccc1O` [tert-butylhydroquinone] as the molecule, how does the “stabilization” value ([1]; elevated temperatures as well as room temperature (25°C) or below) read?
A: resulted in the desired stability

Q: With `Cc1c(C)c2c(c(C)c1O)CCC(C)(CCCC(C)CCCC(C)CCCC(C)C)O2` (stereo not drawn) [α-tocopherol] as the molecule, how does the “stabilization” value [1] read?
A: resulted in the desired stability
